Structures can show the parent of a compound that is named as a salt.

Test [1] relates to HCT116. The note with it: 72 h. A digest of the protocol: (§1)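 In 1536-well plates, 250 HCT116 cells per well were seeded and left for 5 h to attach. Luminescence from CellTiter-Glo was set against vehicle (0%) and positive control (-100%), and pattern correction was applied. IC50 and maximal efficacy come from four-parameter Hill fitting.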
Test [2] deals with HCT116. As to the kind of experiment: efficacy (maximum % inhibition of viability vs DMSO); higher = more cytotoxic. The note with it: 72 h. In short, it runs like this:
as §1

For the compound `CO[C@@H]1[C@@H](O[C@@H]2O[C@H](C)[C@@H](O[C@H]3C[C@@](C)(O)[C@@H](OC(=O)CC(C)C)[C@H](C)O3)[C@H](N(C)C)[C@H]2O)[C@@H](CC=O)C[C@@H](C)C(=O)/C=C/[C@@H]2O[C@H]2C[C@@H](C)OC(=O)C[C@H]1OC(C)=O` [Carbomycin A], the figures for the IC50 cell viability in the test with HCT116 [1] (ICRF193 0 nM) and with HCT116 [1] (ICRF193 200 nM) were 25.9 µM and 20.6 µM, respectively. Also, the efficacy in the test with HCT116 [2] (ICRF193 0 nM) was determined as 93%; in the test with HCT116 [2] (ICRF193 200 nM), 91.2%.
For the compound `NC(=O)C1(N2CCCCC2)CCN(CCCN2c3ccccc3CCc3ccc(Cl)cc32)CC1` [Clocapramine], the IC50 cell viability in the test on HCT116 [1] (ICRF193 0 nM) was determined as 23.1 µM; in the test with HCT116 [1] (ICRF193 200 nM), 18.3 µM. For the same compound, the efficacy with HCT116 [2] (ICRF193 0 nM) was 117%; with HCT116 [2] (ICRF193 200 nM), 105%.
The like results for `O=C(OC[C@H]1O[C@@H](OC(=O)c2cc(O)c(O)c(OC(=O)c3cc(O)c(O)c(O)c3)c2)[C@H](OC(=O)c2cc(O)c(O)c(OC(=O)c3cc(O)c(O)c(O)c3)c2)[C@@H](OC(=O)c2cc(O)c(O)c(OC(=O)c3cc(O)c(O)c(O)c3)c2)[C@@H]1OC(=O)c1cc(O)c(O)c(OC(=O)c2cc(O)c(O)c(O)c2)c1)c1cc(O)c(O)c(OC(=O)c2cc(O)c(O)c(O)c2)c1` [Tannic acid] were, in that order, 18.3 µM, 18.3 µM, 108% and 102%.
On to `C[C@@H](NCCCc1cccc(C(F)(F)F)c1)c1cccc2ccccc12` [Cinacalcet hydrochloride], for which the IC50 cell viability with HCT116 [1] (ICRF193 0 nM) and with HCT116 [1] (ICRF193 200 nM) was 20.6 µM each time. In addition, the results for the efficacy with HCT116 [2] (ICRF193 0 nM) and in the test on HCT116 [2] (ICRF193 200 nM) were 87.6% and 94.6%, respectively.
For the compound `C#C[C@]1(O)CC[C@H]2[C@@H]3CCC4=CC(=O)CCC4=C3C=C[C@@]21CC` [Gestrinone], the results for the IC50 cell viability with HCT116 [1] (ICRF193 0 nM) and in the test on HCT116 [1] (ICRF193 200 nM) were 25.9 µM and above 45.8 µM, respectively. Besides, in the test on HCT116 [2] (ICRF193 0 nM), the efficacy worked out at 56.7%.
`O=c1c(C2CC(c3ccc(-c4ccc(Br)cc4)cc3)Cc3ccccc32)c(O)sc2ccccc12` (stereo not drawn) [Difethialone]: the IC50 cell viability was found to be 23.1 µM with HCT116 [1] (ICRF193 0 nM) and 18.3 µM with HCT116 [1] (ICRF193 200 nM). In addition, the results for the efficacy with HCT116 [2] (ICRF193 0 nM) and in the test on HCT116 [2] (ICRF193 200 nM) were 46.7% and 68.3%, respectively.
The matching figures for `CC[C@]1(O)C[C@@H]2CN(CCc3c([nH]c4ccccc34)[C@@](C(=O)OC)(c3cc4c(cc3OC)N(C)[C@H]3[C@@](O)(C(=O)OC)[C@H](OC(C)=O)[C@]5(CC)C=CCN6CC[C@]43[C@@H]65)C2)C1` [Vinblastine sulfate]: 0.082 µM, 0.058 µM, 75.8% and 82.2%.
The matching figures for `Clc1ccc(CCC(Cn2ccnc2)Sc2c(Cl)cccc2Cl)cc1` (stereo not drawn) [Butoconazole nitrate]: 20.6 µM, 25.9 µM, 96% and 93.9%.
In the case of `C[n+]1cc2c3c(ccc2c2ccc4cc5c(cc4c21)OCO5)OCO3` [Sanguinarine], the IC50 cell viability in the test with HCT116 [1] (ICRF193 0 nM) is 2.83 µM; with HCT116 [1] (ICRF193 200 nM), 2.53 µM. Further, the efficacy in the test with HCT116 [2] (ICRF193 0 nM) was 98.2%; in the test on HCT116 [2] (ICRF193 200 nM), 91.6%.
The like results for `C=CC(=O)Nc1cc(Nc2nccc(-c3cn(C)c4ccccc34)n2)c(OC)cc1N(C)CCN(C)C` [Osimertinib mesylate] were, in that order, 23.1 µM, 16.4 µM, 142% and 101%.
The like results for `O=C(Nc1ccc(Cl)cc1)Nc1ccc(Cl)c(C(F)(F)F)c1` [Cloflucarban] were, in that order, 5.8 µM, 5.8 µM, 98.6% and 98.1%.
For the compound `CNC(=O)c1ccc(N2C(=S)N(c3ccc(C#N)c(C(F)(F)F)c3)C(=O)C2(C)C)cc1F` [Enzalutamide], the IC50 cell viability with HCT116 [1] (ICRF193 0 nM) was above 45.8 µM; with HCT116 [1] (ICRF193 200 nM), 20.6 µM. The efficacy in the test with HCT116 [2] (ICRF193 200 nM) amounted to 45.8%.
`COc1cc([C@@H]2c3cc4c(cc3[C@@H](O[C@@H]3O[C@@H]5CO[C@@H](c6cccs6)O[C@H]5[C@H](O)[C@H]3O)[C@H]3COC(=O)[C@H]23)OCO4)cc(OC)c1O` [Teniposide]: the IC50 cell viability was determined as 2.31 µM in the test with HCT116 [1] (ICRF193 0 nM) and 1.83 µM in the test with HCT116 [1] (ICRF193 200 nM). The efficacy in the test with HCT116 [2] (ICRF193 0 nM) is 92%; in the test with HCT116 [2] (ICRF193 200 nM), 103%.
The matching figures for `CO/N=C1\C[C@]2(C[C@@H]3C[C@@H](C/C=C(\C)C[C@@H](C)/C=C/C=C4\CO[C@@H]5[C@H](O)C(C)=C[C@@H](C(=O)O3)[C@]45O)O2)O[C@H](/C(C)=C/C(C)C)[C@H]1C` [Moxidectin]: 20.6 µM, 16.4 µM, 128% and 111%.
As for `CN1CCCN(C(c2ccccc2)c2ccc(Cl)cc2)CC1` (stereo not drawn) [Homochlorcyclizine], the IC50 cell viability with HCT116 [1] (ICRF193 0 nM) stood at 20.6 µM; in the test with HCT116 [1] (ICRF193 200 nM) it was 29.1 µM. Moreover, the figures for the efficacy with HCT116 [2] (ICRF193 0 nM) and in the test on HCT116 [2] (ICRF193 200 nM) were 71.7% and 84.3%, respectively.
The like results for `C[C@](C#N)(COc1cc(C#N)ccc1C(F)(F)F)NC(=O)c1ccc(SC(F)(F)F)cc1` [Monepantel] were, in that order, 23.1 µM, 20.6 µM, 98.1% and 90.3%.
For `CCc1oc2ccccc2c1C(=O)c1cc(I)c(O)c(I)c1` [Benziodarone], the IC50 cell viability was above 45.8 µM with HCT116 [1] (ICRF193 0 nM) and 29.1 µM in the test with HCT116 [1] (ICRF193 200 nM). Besides, in the test with HCT116 [2] (ICRF193 200 nM), the efficacy was determined as 44.1%.
Consider `CNC(=O)c1ccccc1Sc1ccc2c(/C=C/c3ccccn3)n[nH]c2c1` [Axitinib], for which the IC50 cell viability in the test with HCT116 [1] (ICRF193 0 nM) is 23.1 µM; in the test with HCT116 [1] (ICRF193 200 nM), 20.6 µM. For the same compound, the efficacy in the test on HCT116 [2] (ICRF193 0 nM) was found to be 57.5%; in the test on HCT116 [2] (ICRF193 200 nM) it was 62.1%.
In the case of `O=c1c(-c2ccc(O)cc2)coc2cc(O)cc(O)c12` [Genistein], the IC50 cell viability is above 45.8 µM with HCT116 [1] (ICRF193 0 nM) and 16.4 µM with HCT116 [1] (ICRF193 200 nM). The compound further gave an efficacy in the test on HCT116 [2] (ICRF193 200 nM) of 42.9%.
As for `C[C@@H]1C[C@H]2[C@@H]3CCC4=CC(=O)C=C[C@]4(C)[C@@]3(Cl)[C@@H](O)C[C@]2(C)[C@@]1(OC(=O)c1ccco1)C(=O)CCl` [Mometasone furoate], the figures for the IC50 cell viability in the test on HCT116 [1] (ICRF193 0 nM) and with HCT116 [1] (ICRF193 200 nM) were 18.3 µM and 20.6 µM, respectively. Also, the efficacy in the test on HCT116 [2] (ICRF193 0 nM) came to 102%; with HCT116 [2] (ICRF193 200 nM), 97.9%.
With `[O-][n+]1cccc(/C(Cl)=N/OC[C@H](O)CN2CCCCC2)c1` [Arimoclomol], the IC50 cell viability in the test on HCT116 [1] (ICRF193 0 nM) is above 45.8 µM; with HCT116 [1] (ICRF193 200 nM), 0.651 µM. Moreover, in the test on HCT116 [2] (ICRF193 200 nM), the efficacy was 65.4%.
For the compound `N=C(N)N/N=C/c1c(Cl)cccc1Cl` [Guanabenz], the IC50 cell viability in the test on HCT116 [1] (ICRF193 0 nM) was 23.1 µM; in the test with HCT116 [1] (ICRF193 200 nM), above 45.8 µM. The compound further showed an efficacy in the test with HCT116 [2] (ICRF193 0 nM) of 45.5%.
`c1ccc2c(c1)Sc1ccccc1N2CC1CN2CCC1CC2` (stereo not drawn) [Mequitazine]: the IC50 cell viability in the test on HCT116 [1] (ICRF193 0 nM) was determined as 16.4 µM; in the test on HCT116 [1] (ICRF193 200 nM), 20.6 µM. The efficacy is 103% in the test on HCT116 [2] (ICRF193 0 nM) and 96.8% with HCT116 [2] (ICRF193 200 nM).
Turning to `COc1cc(NCc2ccc3nc(N)nc(N)c3c2C)cc(OC)c1OC` [Trimetrexate], the IC50 cell viability in the test on HCT116 [1] (ICRF193 0 nM) was determined as 1.16 µM; in the test with HCT116 [1] (ICRF193 200 nM), 0.92 µM. Also, the efficacy in the test on HCT116 [2] (ICRF193 0 nM) amounted to 102%; in the test with HCT116 [2] (ICRF193 200 nM), 90.7%.
With `N=C(N)c1ccc(OCCCCCOc2ccc(C(=N)N)cc2)cc1` [Pentamidine isethionate], the IC50 cell viability with HCT116 [1] (ICRF193 0 nM) was above 45.8 µM; with HCT116 [1] (ICRF193 200 nM), 18.3 µM. This compound also had an efficacy with HCT116 [2] (ICRF193 200 nM) of 60.4%.

The values are drawn from the supplement of paper PMC12137928.
